Data from patent publication US4210660A, “Benzamide derivatives” (Yamanouchi Pharmaceutical Co., Ltd., priority 1978, dated 1980).
Like-named read-outs stand apart in the source and are kept apart here.

Tested on: apomorphine-induced stereotyped behavior
Assay: Activity in reducing apomorphine-induced stereotyped behavior (method of Janssen et al.)
Format: in vivo, rats (male, Wistar)
Conditions: sc
Excerpt: In the following Experiment I, the compounds of this invention were compared with chlorpromazine which is a typical antipsychotic and other known structurally similar compounds in their activity in reducing apomorphine-induced stereotyped behavior.

[1] = test sample subcutaneous to rat, after 30 minutes 1.25 mg/kg apomorphine intravenously, observed 5, 10 and 20 minutes later, read-out: ED50

Row | Structure (SMILES) | ED50 (Rattus norvegicus) | ED50 [1]
1 | CN(C)CCCN1c2ccccc2Sc2ccc(Cl)cc21 [Chlorpromazine] | 2.5 mg/kg | 
2 | CNc1cc(OC)c(C(=O)NC2CCN(Cc3ccccc3)C2C)cc1Cl (stereo not shown) [Example 3, N-(1-benzyl-2-methylpyrrolidin-3-yl)-5-chloro-2-methoxy-4-methylaminobenzamide] |  | 0.01 mg/kg
3 | CCN1CCCC1CNC(=O)c1cc(S(N)(=O)=O)ccc1OC (stereo not shown) [Sulpiride] |  | > 100 mg/kg
4 | CCN1CCCC1CNC(=O)c1cc(S(=O)(=O)CC)ccc1OC (stereo not shown) [Sultopiride] |  | 18 mg/kg
